For 60 molecules, Potency code results are on record in patent US20200392116A1, “SUBSTITUTED HETEROCYCLES AS c-MYC TARGETING AGENTS” (NORTHWESTERN UNIVERSITY, priority 2019, published 2020).

The nature of this assay: Potency code of Table 2 (assay not stated).

On to `Cn1nc(C(F)(F)F)cc1-c1ccc(OCc2ccc(Cl)cc2)cc1CO` [NUCC-0200978], for which the Potency code result was “+ (>40 +)”.

Take `Cn1nc(C(F)(F)F)c(Br)c1-c1ccc(OCc2ccc(Cl)cc2)cc1C#N` [NUCC-0200979]: the Potency code result is given as “+ (>40 +)”.

Consider `Cn1nc(-c2ccc(OCc3cccnc3)c(-c3cc(C(F)(F)F)cc(C(F)(F)F)c3)c2O)cc1C(F)(F)F` [NUCC-0201023], for which the Potency code entry was “+ (>40 +)”.

`Oc1c(-c2cc(C(F)(F)F)n[nH]2)ccc(OCCc2ccc(Cl)cc2)c1-c1cc(C(F)(F)F)cc(C(F)(F)F)c1` [NUCC-0201024]: the Potency code entry is given as “++++ (<10 ++++)”.

As to `Cn1nc(C(F)(F)F)cc1-c1ccc(OCCc2ccc(Cl)cc2)c(-c2cc(C(F)(F)F)cc(C(F)(F)F)c2)c1O` [NUCC-0201025], the Potency code entry is given as “++ (30-40 ++)”.

Consider `Cn1nc(-c2ccc(OCCc3ccc(Cl)cc3)c(-c3cc(C(F)(F)F)cc(C(F)(F)F)c3)c2O)cc1C(F)(F)F` [NUCC-0201026], for which the Potency code result is “+ (>40 +)”.

On to `COc1ccc(CCOc2ccc(-c3cc(C(F)(F)F)n[nH]3)c(O)c2-c2cc(C(F)(F)F)cc(C(F)(F)F)c2)cc1` [NUCC-0201027], for which the Potency code entry is recorded as “+++ (10-30 +++)”.

With `COc1ccc(CCOc2ccc(-c3cc(C(F)(F)F)nn3C)c(O)c2-c2cc(C(F)(F)F)cc(C(F)(F)F)c2)cc1` [NUCC-0201028], the Potency code result was “+ (>40 +)”.

Regarding `COc1ccc(CCOc2ccc(-c3cc(C(F)(F)F)n(C)n3)c(O)c2-c2cc(C(F)(F)F)cc(C(F)(F)F)c2)cc1` [NUCC-0201029], the Potency code result is “+ (>40 +)”.

Turning to `CC(C)COc1ccc(-c2cc(C(F)(F)F)n[nH]2)c(O)c1-c1cc(C(C)(F)F)cc(C(F)(F)F)c1` [NUCC-0201030], the Potency code entry was “+ (>40 +)”.

`CCCCOc1ccc(-c2cc(C(F)(F)F)n[nH]2)c(O)c1-c1cc(C(F)(F)F)cc(C(F)(F)F)c1` [NUCC-0201031]: the Potency code entry is on record as “+ (>40 +)”.

Take `Oc1c(-c2cc(C(F)(F)F)n[nH]2)ccc(OCc2ccc(F)cc2)c1-c1cc(C(F)(F)F)cc(C(F)(F)F)c1` [NUCC-0201033]: the Potency code entry is on record as “+ (>40 +)”.

With `Cn1nc(C(F)(F)F)cc1-c1ccc(OCc2ccc(F)cc2)c(-c2cc(C(F)(F)F)cc(C(F)(F)F)c2)c1O` [NUCC-0201034], the Potency code entry is on record as “+ (>40 +)”.

`Cn1nc(-c2ccc(OCc3ccc(F)cc3)c(-c3cc(C(F)(F)F)cc(C(F)(F)F)c3)c2O)cc1C(F)(F)F` [NUCC-0201035]: the Potency code result was “+ (>40 +)”.

Regarding `CS(=O)(=O)c1cccc(-c2c(OCc3ccc(Cl)cc3)ccc(-c3cc(C(F)(F)F)n[nH]3)c2O)c1` [NUCC-0201036], the Potency code entry is “++ (30-40 ++)”.

Take `Oc1c(-c2cc(C(F)(F)F)n[nH]2)ccc(OCc2ccc(Cl)cc2)c1-c1cncc(C(F)(F)F)c1` [NUCC-0201037]: the Potency code result was “+++ (10-30 +++)”.

In the case of `N#Cc1cncc(-c2c(OCc3ccc(Cl)cc3)ccc(-c3cc(C(F)(F)F)n[nH]3)c2O)c1` [NUCC-0201038], the Potency code result was “++++ (<10 ++++)”.

Consider `CCOc1ncc(C(F)(F)F)cc1-c1c(OCc2ccc(Cl)cc2)ccc(-c2cc(C(F)(F)F)n[nH]2)c1O` [NUCC-0201039], for which the Potency code entry is reported as “+++ (10-30 +++)”.

As for `Oc1c(-c2cc(C(F)(F)F)n[nH]2)ccc(OCc2ccc(Cl)cc2)c1-c1cncc(F)c1` [NUCC-0201040], the Potency code result is “+++ (10-30 +++)”.

On to `COc1ccc(COc2ccc(-c3cc(C(F)(F)F)n[nH]3)c(O)c2-c2cc(C(F)(F)F)cc(C(F)(F)F)c2)cc1` [NUCC-0201041], for which the Potency code entry is on record as “+ (>40 +)”.

As to `COc1ccc(COc2ccc(-c3cc(C(F)(F)F)nn3C)c(O)c2-c2cc(C(F)(F)F)cc(C(F)(F)F)c2)cc1` [NUCC-0201042], the Potency code entry was “+ (>40 +)”.

On to `COc1ccc(COc2ccc(-c3cc(C(F)(F)F)n(C)n3)c(O)c2-c2cc(C(F)(F)F)cc(C(F)(F)F)c2)cc1` [NUCC-0201043], for which the Potency code entry is on record as “+ (>40 +)”.

As to `CCCCCCOc1ccc(-c2cc(C(F)(F)F)n[nH]2)c(O)c1-c1cncc(C(F)(F)F)c1` [NUCC-0201192], the Potency code entry is recorded as “+++ (10-30 +++)”.

With `CCCCOc1ccc(-c2cc(C(F)(F)F)n[nH]2)c(O)c1-c1cncc(C#N)c1` [NUCC-0201193], the Potency code entry is on record as “++++ (<10 ++++)”.

In the case of `CCCCCCOc1ccc(-c2cc(C(F)(F)F)n[nH]2)c(O)c1-c1cncc(C#N)c1` [NUCC-0201194], the Potency code entry is “+ (>40 +)”.

For `CC(C)CCOc1ccc(-c2cc(C(F)(F)F)n[nH]2)c(O)c1-c1cncc(C#N)c1` [NUCC-0201195], the Potency code entry is “++++ (<10 ++++)”.

As for `CCCOc1ccc(-c2cc(C(F)(F)F)n[nH]2)c(O)c1-c1cc(C(F)(F)F)cc(C(F)(F)F)c1` [NUCC-0201197], the Potency code entry is “+++ (10-30 +++)”.

Consider `[N-]=[N+]=NCCOCCOCCOCC(=O)Nc1ccc(COc2ccc(-c3cc(C(F)(F)F)n[nH]3)c(O)c2-c2cc(C(F)(F)F)cc(C(F)(F)F)c2)cc1` [NUCC-0201199], for which the Potency code result is listed as “+++ (10-30 +++)”.

For `[N-]=[N+]=NCCOCCOCCOCCOCC(=O)Nc1ccc(COc2ccc(-c3cc(C(F)(F)F)n[nH]3)c(O)c2-c2cc(C(F)(F)F)cc(C(F)(F)F)c2)cc1` [NUCC-0201200], the Potency code entry is reported as “+ (>40 +)”.

Turning to `Nc1ccc(COc2ccc(-c3cc(C(F)(F)F)n[nH]3)c(O)c2-c2cc(C(F)(F)F)cc(C(F)(F)F)c2)cc1` [NUCC-0201201], the Potency code result is on record as “++++ (<10 ++++)”.

In the case of `CCCCOc1ccc(-c2cc(C(F)(F)F)nn2C)c(O)c1-c1cncc(C(F)(F)F)c1` [NUCC-0201204], the Potency code result is “+++ (10-30 +++)”.

For `CCCCCCOc1ccc(-c2cc(C(F)(F)F)nn2C)c(O)c1-c1cncc(C(F)(F)F)c1` [NUCC-0201205], the Potency code entry was “++++ (<10 ++++)”.

With `CC(C)CCOc1ccc(-c2cc(C(F)(F)F)nn2C)c(O)c1-c1cncc(C(F)(F)F)c1` [NUCC-0201206], the Potency code entry is on record as “++++ (<10 ++++)”.

With `CC(C)CCOc1ccc(-c2cc(C(F)(F)F)nn2C)c(O)c1-c1cncc(C#N)c1` [NUCC-0201208], the Potency code result is reported as “++++ (<10 ++++)”.

As to `CCCCCCOc1ccc(-c2cc(C(F)(F)F)n(C)n2)c(O)c1-c1cncc(C(F)(F)F)c1` [NUCC-0201210], the Potency code result is reported as “+ (>40 +)”.

For the molecule `CC(C)CCOc1ccc(-c2cc(C(F)(F)F)n(C)n2)c(O)c1-c1cncc(C(F)(F)F)c1` [NUCC-0201211], the Potency code entry is recorded as “+ (>40 +)”.

Consider `CCCCCCOc1ccc(-c2cc(C(F)(F)F)n(C)n2)c(O)c1-c1cncc(C#N)c1` [NUCC-0201212], for which the Potency code result is reported as “+ (>40 +)”.

On to `CC(C)CCOc1ccc(-c2cc(C(F)(F)F)n(C)n2)c(O)c1-c1cncc(C#N)c1` [NUCC-0201213], for which the Potency code entry is “++++ (<10 ++++)”.

For `C#CCOc1ccc(COc2ccc(-c3cc(C(F)(F)F)n[nH]3)c(O)c2-c2cc(C(F)(F)F)cc(C(F)(F)F)c2)cc1` [NUCC-0201219], the Potency code entry is “++++ (<10 ++++)”.

For the molecule `COc1ccc(-c2cc(C(F)(F)F)[nH]n2)c(O)c1-c1cc(C(F)(F)F)cc(C(F)(F)F)c1` [NUCC-0201220], the Potency code result is recorded as “++++ (<10 ++++)”.

`COc1ccc(-c2cc(C(F)(F)F)n(C)n2)c(O)c1-c1cc(C(F)(F)F)cc(C(F)(F)F)c1` [NUCC-0201221]: the Potency code result was “+ (>40 +)”.

Turning to `COc1ccc(-c2cc(C(F)(F)F)nn2C)c(O)c1-c1cc(C(F)(F)F)cc(C(F)(F)F)c1` [NUCC-0201222], the Potency code entry is recorded as “+++ (10-30 +++)”.

In the case of `CCCCOc1ccc(-c2cc(C(F)(F)F)n[nH]2)c(O)c1-c1ccc(Cl)c(C(F)(F)F)c1` [NUCC-0201225], the Potency code result is recorded as “+ (>40 +)”.

Consider `CCCCOc1ccc(-c2cc(C(F)(F)F)nn2C)c(O)c1-c1ccc(Cl)c(C(C)(C)F)c1` [NUCC-0201226], for which the Potency code result is “+++ (10-30 +++)”.

With `CCCCOc1ccc(-c2cc(C(F)(F)F)n(C)n2)c(O)c1-c1ccc(Cl)c(C(F)(F)F)c1` [NUCC-0201227], the Potency code entry is recorded as “++++ (<10 ++++)”.

`Cn1nc(C(F)(F)F)cc1-c1ccc(OCc2ccc(Cl)cc2)c(-c2cncc(C(F)(F)F)c2)c1O` [NUCC-0201630]: the Potency code entry is reported as “+ (>40 +)”.

For the molecule `Cn1nc(-c2ccc(OCc3ccc(Cl)cc3)c(-c3cncc(C(F)(F)F)c3)c2O)cc1C(F)(F)F` [NUCC-0201631], the Potency code result is reported as “+ (>40 +)”.

In the case of `Cn1nc(C(F)(F)F)cc1-c1ccc(OCc2ccc(Cl)cc2)c(-c2cncc(C#N)c2)c1O` [NUCC-0201632], the Potency code entry is “+++ (10-30 +++)”.

For the molecule `Cn1nc(-c2ccc(OCc3ccc(Cl)cc3)c(-c3cncc(C#N)c3)c2O)cc1C(F)(F)F` [NUCC-0201633], the Potency code entry is “+ (>40 +)”.

In the case of `CC(C)CCOc1ccc(-c2cc(C(F)(F)F)[nH]n2)c(O)c1-c1ccc(Cl)c(C(F)(F)F)c1` [NUCC-0201634], the Potency code result is reported as “++ (30-40 ++)”.

As to `CC(C)CCOc1ccc(-c2cc(C(F)(F)F)nn2C)c(O)c1-c1ccc(Cl)c(C(F)(F)F)c1` [NUCC-0201635], the Potency code entry is “+ (>40 +)”.

With `CC(C)CCOc1ccc(-c2cc(C(F)(F)F)[nH]n2)c(O)c1-c1cncc(C(F)(F)F)c1` [NUCC-0201636], the Potency code entry is “+ (>40 +)”.

Take `CCCCOc1ccc(-c2cc(C(F)(F)F)[nH]n2)c(O)c1-c1cncc(C(F)(F)F)c1` [NUCC-0201637]: the Potency code entry is on record as “+ (>40 +)”.

For the molecule `CCCCOc1ccc(-c2cc(C(F)(F)F)nn2C)c(O)c1-c1cncc(C#N)c1` [NUCC-0201638], the Potency code entry is given as “+ (>40 +)”.

`CCCCOc1ccc(-c2cc(C(F)(F)F)n(C)n2)c(O)c1-c1cncc(C#N)c1` [NUCC-0201639]: the Potency code entry is reported as “+ (>40 +)”.

Turning to `NCCOc1ccc(-c2cc(C(F)(F)F)n[nH]2)c(O)c1-c1ccc(Cl)c(C(F)(F)F)c1` [NUCC-0201640], the Potency code result is reported as “+ (>40 +)”.

On to `Cn1nc(-c2ccc(OCCN)c(-c3ccc(Cl)c(C(F)(F)F)c3)c2O)cc1C(F)(F)F` [NUCC-0201641], for which the Potency code result was “+ (>40 +)”.

As to `Cn1nc(C(F)(F)F)cc1-c1ccc(OCCCN)c(-c2ccc(Cl)c(C(F)(F)F)c2)c1O` [NUCC-0201642], the Potency code entry was “+ (>40 +)”.

In the case of `Cn1nc(-c2ccc(OCCCN)c(-c3ccc(Cl)c(C(F)(F)F)c3)c2O)cc1C(F)(F)F` [NUCC-0201643], the Potency code result is reported as “+ (>40 +)”.

On to `CC(C)(C)OC(=O)NCCOc1ccc(-c2cc(C(F)(F)F)n[nH]2)c(O)c1-c1cncc(C(F)(F)F)c1` [NUCC-0201644], for which the Potency code result is “+ (>40 +)”.
